One assay has as its system ATM/ATR kinases. Put plainly: In vitro phosphorylation of recombinant SerRS by DNA-activated HEK293 nuclear extract (p-SQ immunoblot, 32P-labelling). Type of assay: biochemical, human. To be noted: recombinant his6-tagged protein, p-SQ antibody and 32P-labelling. On the procedure: FIGS. 1A-G show SerRS is important for hypoxia induced VEGFA expression and is phosphorylated by ATM and ATR kinases under hypoxia at serine 101 and serine 241 residues. In FIG. 1A, HEK293 cells were transfected with shRNAs targeting SerRS (sh-SerRS) or GlyRS (sh-GlyRS), or nonspecific control shRNA (sh-Control). 48 hours post-transfection, cells were cultured under hypoxia or normoxia conditions for 12 hours. Immunoblot of cell lysates with anti-SerRS, anti-GlyRS and anti-β-actin antibodies (left). VEGFA expression levels were measured by qRT-PCR (right) and relative induction of VEGFA transcription under hypoxia were plotted (right, inset) (means±SEM. from four independent experiments; *P<0.01, **P<0.0001). […] The conserved ATM/ATR substrate motif residues are underlined. In FIG. 1C, recombinant his6-tagged human SerRS or GlyRS were incubated with γ-^32P-ATP and HEK293 cell nuclear extracts which are treated with or without double-stranded DNA oligoes mimicking DNA damage stimuli to activate ATM/ATR/DNA-PK kinases. Recombinant proteins were then purified by Ni-NTA beads and subjected to SDS-PAGE and autoradiography. In FIG. 1D, recombinant his6-tagged two human aminoacyl tRNA synthetases (AARS): TyrRS and GlyRS, wild type SerRS, or SerRS mutants with single or double substitutions of serine 101 and serine 241 with alanine (S101A, S241A, and S101A/S241A) were treated as described in FIG. 1C and phosphorylated recombinant proteins were immunoblotted with antibodies as indicated after purification by Ni-NTA beads. In FIG. 1E, HEK293 cells were cultured under hypoxia for 3, 6, and 12 hours. Phosphorylated SerRS was immunoblotted with specific anti-p-SQ antibody after SerRS proteins were immunoprecipitated (IP). Cell lysates were immunoblotted with indicated antibodies for known ATM and ATR substrates (Chk1 and P53). In FIG. 1F, Flag-tagged wild type and mutant SerRS constructs were transfected into HEK293 cells. 24 hours post-transfection, cells were treated with hypoxia stress for 12 hours and ectopically expressed SerRS was then purified by immunoprecipitation (IP) using anti-Flag antibody and immunoblot (IB) with anti-P-SQ antibody and anti-Flag antibody. In FIG. 1G, HEK293 cells were transfected with siRNA against ATM (si-ATM) or ATR (si-ATR) and treated with hypoxia stress for 12 hours. Phosphorylated SerRS were immunoblotted as described in FIG. 1E. […]
For protein purification, human SerRS and its mutant genes were subeloned into pET-20b(+) plasmid (Novagen, Darmstadt, Germany) and overexpressed in E. coli. […] The purities of the recombinant proteins were assessed by Coomassie blue staining following 4-12% Mini Gel (ThermoFisher Scientific) electrophoresis. Protein concentrations were determined using Bradford protein assay (BioRad, Hercules, Calif., USA). […]
(In western blotting, separated proteins are transferred to a membrane and probed.)

A further assay deals with SIRT2. Put plainly: Co-immunoprecipitation of SerRS with SIRT2 in HEK293 cells. The format is cell-based, human. As to conditions: V5-tagged SIRT2 and Flag-tagged SerRS co-transfected. Here is the method:
The cytosolic fractions (Cy), nuclear fractions (Nu), and the whole cell lysates (WCL) were examined by immunoblot with antibodies against SerRS, nuclear protein Lamin A/C, and cytosolic protein α-tubulin. In FIG. 8B, HEK293 cells were transfected with Flag-tagged SerRS^WT, SerRS^S101A/S241A, or SerRS^S101D/S241D and subjected to cell fractionation and IB with anti-Flag, anti-Lamin A/C, and anti-α-tubulin antibodies. In FIG. 8C, HEK293 cells were cultured under hypoxia for 6 hours and 12 hours. Cells were then lysed and subjected to IP with anti-SerRS antibody and IB with both anti-SerRS and anti-SIRT2 antibodies. In FIG. 8D, HEK293 cells were co-transfected with V5-tagged SIRT2 and Flag-tagged wild type or mutant SerRS. 24 hours post-transfection, cell lysates were subjected to IP with anti-Flag antibody and IB with anti-V5 antibody.
Cells were resuspended with lysis buffer (20 mM Tris-HCl (pH 7.5), 150 mM NaCl, 1 mM of EDTA, 1 mM EGTA, 1% Triton X-100, 2.5 mM sodium pyrophosphate, 1 mM beta-glycerophosphate, 1 mM Na3VO4, and protease inhibitor cocktail) on ice. Supernatants were incubated with indicated antibodies and protein-G-conjugated agarose beads (ThermoFisher Scientific) for at least 2 h. […]

In another assay the test system is VEGFA. Put plainly: VEGFA mRNA induction by 12-hour hypoxia in HEK293 cells (qRT-PCR). The format is cell-based, human. To be noted: hypoxia 12 hours. On the technique in general: Quantitative PCR measures a nucleic acid by following its amplification.
The mark [1] stands for this setting: overexpression of SerRS construct, 24 hours post-transfection.

These results are taken from patent US20190167771A1, “CONTROL ANGIOGENESIS BY REGULATING PHOSPHORYLATION OF SERYL-tRNA SYNTHETASE (SerRS)” (The Scripps Research Institute, priority 2016, published 2019).

Procedure for VEGFA: In FIG. 3B, HEK293 cells were transiently transfected with SerRS^WT or SerRS^S101A/S241A constructs or empty control vector. 24 hours post-transfection, VEGFA mRNA induction by 12-hour-hypoxia treatment was monitored by qRT-PCR (means±SEM from four independent experiments; *P<0.05, **P<0.01, ***P<0.005). In FIG. 3C, HEK293 cells were transiently transfected with indicated constructs. 36 hours post-transfection, VEGFA mRNA induction by 12-hour-hypoxia treatment was monitored by qRT-PCR (means±SEM from four independent experiments; *P<0.0, **P<0.001, ***P<0.0001). The protein levels of SerRS, HIF-1α, and β-actin were examined by western blot (bottom).
Transient transfections were performed using Lipofectamine 2000 (ThermoFisher Scientific).
One gram of the total RNA from each sample was reversely transcribed to cDNA by M-MLV reverse transcriptase (Promega, Madison, Wis., USA). All real-time PCR reactions were performed using the StepOnePlus Real-Time PCR system (ThermoFisher Scientific) with SYBR Select Master Mix ThermoFisher Scientific). […] The PCR reaction program started at 95° C. for 10 min, followed by 45 cycles of 95° C. for 20 seconds and 60° C. for 1 min. Each experiment was carried out in triplicate. The VEGFA gene expression was normalized to that of β-ACTIN. Statistical analyses were performed with the software SigmaPlot (version 10.0). Student's t-test was used to analyze the changes between different groups.

For “SerRS^S101A/S241A: phosphorylation-deficient human SerRS double mutant, serine 101 and 241 to alanine, SEQ ID NO: 4 (mouse version in matrigel assay)”, the “level of phosphorylation in vitro” value in the assay on ATM/ATR kinases is “almost had no phosphorylation”. The “interaction with SIRT2” value with SIRT2 is on record as “as strong as with SerRS^WT”. Moreover, the “VEGFA induction under hypoxia” value in the assay with VEGFA (SerRS construct expressed while HIF is knocked down by shRNA (shHIF)) was “completely inhibited VEGFA induction”; in the assay on VEGFA (setting [1]) it was “significantly suppressed VEGFA induction”.

Turning to “SerRS^WT: wildtype human seryl-tRNA synthetase protein, SEQ ID NO: 1 (mouse wild type used in the 3B11 matrigel assay)”, the “level of phosphorylation in vitro” value in the assay on ATM/ATR kinases was “robust phosphorylation”. In the assay on VEGFA (setting [1]), the “VEGFA induction under hypoxia” value was “had no effect”.

Regarding “SerRS^S101D/S241D: SerRS with double substitutions of S101 and S241 with aspartic acid, mimics the phosphorylated SerRS”, the “interaction with SIRT2” value in the assay on SIRT2 was “as strong as with SerRS^WT”.
